# System: RSV Long strain
# Assay: Viral Cytopathic Effect (CPE) Assay
# Assay type: cell-based
# Details: human respiratory syncytial virus, 144 h; RSV Long strain (ATCC), cell viability after 6 days by Cell Counting kit-8
# Method: Viral Cytopathic Effect (CPE) Assay
# To measure anti-RSV activity of compounds, 96-well plates are seeded with 6×10^3 cells per well in Dulbecco's modified Eagle's medium (DMEM) containing 10% fetal bovine serum (FBS). Cells are infected the next day with sufficient RSV Long strain (ATCC) to produce an approximately 80-90% cytopathic effect after 6 days, in the presence of serial half-log diluted compound in a total volume of 200 μL per well. The viability of cells is assessed after 6 days using Cell Counting kit-8 (Dojindo Molecular Technologies). The absorbance at 450 nm and referenced at 630 nm is measured to determine 50% effective concentration (EC50).
row,SMILES,EC50 [nM]
1,"CS(=O)(=O)[C@H]1C[C@@H](n2c(CN3C(=O)C4(CC4)c4ccncc43)nc3cc(Cl)ccc32)C1 [Example 1-1, 1′-({5-Chloro-1-[cis-3-(methylsulfonyl)cyclobutyl]-1H-benzimidazol-2-yl}methyl)spiro[cyclopropane-1,3′-pyrrolo[2,3-c]pyridin]-2′(1′H)-one]",10
2,"CS(=O)(=O)[C@H]1C[C@H](n2c(CN3C(=O)C4(CC4)c4ccncc43)nc3cc(Cl)ccc32)C1 [Example 1-2, 1′-({5-Chloro-1-[trans-3-(methylsulfonyl)cyclobutyl]-1H-benzimidazol-2-yl}methyl)spiro[cyclopropane-1,3′-pyrrolo[2,3-c]pyridin]-2′(1′H)-one]",6
3,"O=C1N(Cc2nc3cc(Cl)ccc3n2C2CC3(C2)CS(=O)(=O)C3)c2cnccc2C12CC2 [Example 2-1, 1′-{[5-Chloro-1-(2,2-dioxido-2-thiaspiro[3.3]hept-6-yl)-1H-benzimidazol-2-yl]methyl}spiro[cyclopropane-1,3′-pyrrolo[2,3-c]pyridin]-2′(1′H)-one]",4
4,"O=C1N(Cc2nc3cc(Cl)ccc3n2C2CCS(=O)(=O)CC2)c2cnccc2C12CC2 [Example 2-2, 1′-{[5-Chloro-1-(1,1-dioxidotetrahydro-2H-thiopyran-4-yl)-1H-benzimidazol-2-yl]methyl}spiro[cyclopropane-1,3′-pyrrolo[2,3-c]pyridin]-2′(1′H)-one]",6
5,"O=C1N(Cc2nc3cc(Cl)ccc3n2C2CCCC2)c2cnccc2C12CC2 [Example 2-3, 1′-[(5-Chloro-1-cyclopentyl-1H-benzimidazol-2-yl)methyl]spiro[cyclopropane-1,3′-pyrrolo[2,3-c]pyridin]-2′(1′H)-one]",32
6,"O=C1N(Cc2nc3cc(Cl)ccc3n2C2COC2)c2cnccc2C12CC2 [Example 2-4, 1′-{[5-Chloro-1-(oxetan-3-yl)-1H-benzimidazol-2-yl]methyl}spiro[cyclopropane-1,3′-pyrrolo[2,3-c]pyridin]-2′(1′H)-one]",70
7,"O=C1N(Cc2nc3cc(Cl)ccc3n2C2CC(F)(F)C2)c2cnccc2C12CC2 [Example 2-5, 1′-{[5-Chloro-1-(3,3-difluorocyclobutyl)-1H-benzimidazol-2-yl]methyl}spiro[cyclopropane-1,3′-pyrrolo[2,3-c]pyridin]-2′(1′H)-one]",16
8,"O=C1N(Cc2nc3cc(Cl)ccc3n2C2CCOCC2)c2cnccc2C12CC2 [Example 2-6, 1′-{[5-Chloro-1-(tetrahydro-2H-pyran-4-yl)-1H-benzimidazol-2-yl]methyl}spiro[cyclopropane-1,3′-pyrrolo[2,3-c]pyridin]-2′(1′H)-one]",23
9,"O=C1N(Cc2nc3cc(Cl)ccc3n2C2CCC(O)CC2)c2cnccc2C12CC2 (centres unmarked) [Example 2-7, 1′-{[5-Chloro-1-(4-hydroxycyclohexyl)-1H-benzimidazol-2-yl]methyl}spiro[cyclopropane-1,3′-pyrrolo[2,3-c]pyridin]-2′(1′H)-one]",1.1
10,"O=C1N(Cc2nc3cc(Cl)ccc3n2C2CCC(O)C2)c2cnccc2C12CC2 (centres unmarked) [Example 2-8, 1′-{[5-Chloro-1-(3-hydroxycyclopentyl)-1H-benzimidazol-2-yl]methyl}spiro[cyclopropane-1,3′-pyrrolo[2,3-c]pyridin]-2′(1′H)-one]",11
11,"O=C1NCCC1n1c(CN2C(=O)C3(CC3)c3ccncc32)nc2cc(Cl)ccc21 (centres unmarked) [Example 2-9, 1′-{[5-Chloro-1-(2-oxopyrrolidin-3-yl)-1H-benzimidazol-2-yl]methyl}spiro[cyclopropane-1,3′-pyrrolo[2,3-c]pyridin]-2′(1′H)-one]",164
12,"O=C1CC(n2c(CN3C(=O)C4(CC4)c4ccncc43)nc3cc(Cl)ccc32)CCN1 (centres unmarked) [Example 2-10, 1′-{[5-Chloro-1-(2-oxopiperidin-4-yl)-1H-benzimidazol-2-yl]methyl}spiro[cyclopropane-1,3′-pyrrolo[2,3-c]pyridin]-2′(1′H)-one]",5
13,"O=C1N(Cc2nc3cc(Cl)ccc3n2C2CCC(F)(F)C2)c2cnccc2C12CC2 (centres unmarked) [Example 2-11, 1′-{[5-Chloro-1-(3,3-difluorocyclopentyl)-1H-benzimidazol-2-yl]methyl}spiro[cyclopropane-1,3′-pyrrolo[2,3-c]pyridin]-2′(1′H)-one]",17

# Results, then the molecule that gave them:
row,EC50 [nM],SMILES
1,397,"CC1(C)[C@H](n2c(CN3C(=O)C4(CC4)c4ccncc43)nc3cc(Cl)ccc32)CCS1(=O)=O (stereo in doubt) [Example 13, 1′-{[5-Chloro-1-(2,2-dimethyl-1,1-dioxidotetrahydrothiophen-3-yl)-1H-benzimidazol-2-yl]methyl}spiro[cyclopropane-1,3′-pyrrolo[2,3-c]pyridin]-2′(1′H)-one]"
2,510,"O=C1N(Cc2nc3cc(Cl)ccc3n2[C@H]2CC[C@@H](C(=O)O)CC2)c2cnccc2C12CC2 [Example 2-12, cis-4-{5-Chloro-2-[(2′-oxospiro[cyclopropane-1,3′-pyrrolo[2,3-c]pyridin]-1′(2′H)-yl)methyl]-1H-benzimidazol-1-yl}cyclohexanecarboxylic acid]"
3,15,"O=C1N(Cc2nc3cc(Cl)cnc3n2C2CCS(=O)(=O)C2)c2cnccc2C12CC2 (centres unmarked) [Example 2-13, 1′-{[6-Chloro-3-(1,1-dioxidotetrahydrothiophen-3-yl)-3H-imidazo[4,5-b]pyridin-2-yl]methyl}spiro[cyclopropane-1,3′-pyrrolo[2,3-c]pyridin]-2′(1′H)-one]"
4,6,"O=C1N(Cc2nc3cc(Cl)ccc3n2C2CCOC2)c2cnccc2C12CC2 (centres unmarked) [Example 2-14, 1′-{[5-Chloro-1-(tetrahydrofuran-3-yl)-1H-benzimidazol-2-yl]methyl}spiro[cyclopropane-1,3′-pyrrolo[2,3-c]pyridin]-2′(1′H)-one]"
5,31,"CC(C)(C)OC(=O)N1CCC(n2c(CN3C(=O)C4(CC4)c4ccncc43)nc3cc(Cl)ccc32)C1 (centres unmarked) [Example 2-15, tert-Butyl 3-{5-chloro-2-[(2′-oxospiro[cyclopropane-1,3′-pyrrolo[2,3-c]pyridin]-1′(2′H)-yl)methyl]-1H-benzimidazol-1-yl}pyrrolidine-1-carboxylate]"
6,122,"O=C1N(Cc2nc3cc(Cl)ccc3n2C(CO)CO)c2cnccc2C12CC2 [Example 2-16, 1′-{[5-Chloro-1-(1,3-dihydroxypropan-2-yl)-1H-benzimidazol-2-yl]methyl}spiro[cyclopropane-1,3′-pyrrolo[2,3-c]pyridin]-2′(1′H)-one]"
7,5,"C[C@]1(O)C[C@H](n2c(CN3C(=O)C4(CC4)c4ccncc43)nc3cc(Cl)ccc32)C1 [Example 2-17, 1′-{[5-Chloro-1-(trans-3-hydroxy-3-methylcyclobutyl)-1H-benzimidazol-2-yl]methyl}spiro[cyclopropane-1,3′-pyrrolo[2,3-c]pyridin]-2′(1′H)-one]"
8,6,"O=C1N(Cc2nc3cc(Cl)ccc3n2C2CCS(=O)(=O)C2)c2cnccc2C12CC2 (centres unmarked) [Example 3-1, 1′-{[5-Chloro-1-(1,1-dioxidotetrahydrothiophen-3-yl)-1H-benzimidazol-2-yl]methyl}spiro[cyclopropane-1,3′-pyrrolo[2,3-c]pyridin]-2′(1′H)-one]"
9,10,"O=C1N(Cc2nc3cc(Cl)ccc3n2[C@H]2CCS(=O)(=O)C2)c2cnccc2C12CC2 [Example 3-2, 1′-({5-Chloro-1-[(3S)-1,1-dioxidotetrahydrothiophen-3-yl]-1H-benzimidazol-2-yl}methyl)spiro[cyclopropane-1,3′-pyrrolo[2,3-c]pyridin]-2′(1′H)-one]"
10,1.6,"O=C1N(Cc2nc3cc(Cl)ccc3n2[C@@H]2CCS(=O)(=O)C2)c2cnccc2C12CC2 [Example 3-3, 1′-({5-Chloro-1-[(3R)-1,1-dioxidotetrahydrothiophen-3-yl]-1H-benzimidazol-2-yl}methyl)spiro[cyclopropane-1,3′-pyrrolo[2,3-c]pyridin]-2′(1′H)-one]"
11,6.5,"O=C1N(Cc2nc3cc(Cl)ccc3n2C2CS(=O)(=O)C2)c2cnccc2C12CC2 [Example 4-1, 1′-{[5-Chloro-1-(1,1-dioxidothietan-3-yl)-1H-benzimidazol-2-yl]methyl}spiro[cyclopropane-1,3′-pyrrolo[2,3-c]pyridin]-2′(1′H)-one]"
12,95,"CC1(C)C(=O)N(Cc2nc3cc(Cl)ccc3n2C2CS(=O)(=O)C2)c2cnccc21 [Example 4-2, 1-{[5-Chloro-1-(1,1-dioxidothietan-3-yl)-1H-benzimidazol-2-yl]methyl}-3,3-dimethyl-1,3-dihydro-2H-pyrrolo[2,3-c]pyridin-2-one]"
13,207,"CCC1(CC)C(=O)N(Cc2nc3cc(Cl)ccc3n2C2CS(=O)(=O)C2)c2cnccc21 [Example 4-3, 1-{[5-Chloro-1-(1,1-dioxidothietan-3-yl)-1H-benzimidazol-2-yl]methyl}-3,3-diethyl-1,3-dihydro-2H-pyrrolo[2,3-c]pyridin-2-one]"
14,5,"O=C1N(Cc2nc3cc(Cl)ccc3n2C2C[S+]([O-])C2)c2cnccc2C12CC2 (centres unmarked) [Example 5, 1′-{[5-Chloro-1-(1-oxidothietan-3-yl)-1H-benzimidazol-2-yl]methyl}spiro[cyclopropane-1,3′-pyrrolo[2,3-c]pyridin]-2′(1′H)-one]"
15,0.9,"O=C1N(Cc2nc3cc(Cl)cc(F)c3n2C2CS(=O)(=O)C2)c2cnccc2C12CC2 [Example 6, 1′-{[5-Chloro-1-(1,1-dioxidothietan-3-yl)-7-fluoro-1H-benzimidazol-2-yl]methyl}spiro[cyclopropane-1,3′-pyrrolo[2,3-c]pyridin]-2′(1′H)-one]"
16,2,"O=C1CCC(n2c(CN3C(=O)C4(CC4)c4ccncc43)nc3cc(Cl)ccc32)CN1 (centres unmarked) [Example 7-1, 1′-{[5-Chloro-1-(6-oxopiperidin-3-yl)-1H-benzimidazol-2-yl]methyl}spiro[cyclopropane-1,3′-pyrrolo[2,3-c]pyridin]-2′(1′H)-one]"
